Test results from US11904054B2, “Compositions and methods for delivering pharmaceutical agents” (Arizona Board of Regents on Behalf of the University of …, priority 2018, dated 2024).

Key:
[1] = Particle sizing and size distribution by image analysis of SEM micrographs; assay type: physicochemical
From the text: Using conditions similar to previously reported (Li, X., et al., J Aerosol Med Pulm Drug Deliv, 2014. 27(2): p. 81-93; Li, X., et al., European Journal of Pharmaceutical Sciences, 2014. 52: p. 191-205; Meenach, S. A., et al., AAPS PharmSciTech, 2014. 15(6): p. 1574-87; Li, X., et al., Pharm Sci, 2014. 103(9): p. 2937-49; Meenach, S. A., et al., European Journal of Pharmaceutical Sciences, 2013. 49(4): p. 699-797; Muralidharan, P., et al., The Royal Society of Chemistry(RSC): Molecular Systems Design & Engineering, 2016: p. 1-18), visual imaging and analysis of particle size, morphology, and surface morphology were achieved by scanning electron microscopy (SEM) using a FEI Inspect S microscope (FBI, Brno, Czech republic). […]
The mean size, standard deviation, and size range were determined using SigmaScan™ Pro 5.0.0 (Systat, Inc., San Jose, Calif.) based on their scanning electron micrographs using a similar procedure that we have previously reported (Muralidharan et al., supra; Meenach, S. A., et al., AAPS PharmSciTech, 2014. 15(6): p. 1574-87). Representative micrographs for each particle sample at 3000× magnification was analyzed by measuring the diameter of at least 100 particles per sample.

[2] = Residual water content by Karl Fischer titration; assay type: physicochemical; conditions: Karl Fisher Titration, n = 3, Mean ± SD
From the text: Using conditions similar to previously reported (Li, X., et al., J Aerosol Med Pulm Drug Deliv, 2014. 27(2): p. 81-93; Li, X., et al., European Journal of Pharmaceutical Sciences, 2014. 52: p. 191-205; Meenach, S. A., et al., AAPS PharmSciTech, 2014. 15(6): p. 1574-87; Li, X., et al., Pharm Sci, 2014. 103(9): p. 2937-49; Meenach, S. A., et al., European Journal of Pharmaceutical Sciences, 2013. 49(4): p. 699-797; Muralidharan, P., et al., The Royal Society of Chemistry(RSC): Molecular Systems Design & Engineering, 2016: p. 1-18), the residual water content of all SD and Co-SD powders were quantified analytically by Karl Fischer titration (KFT) coulometrically using a TitroLine 7500 trace titrator (SI Analytics, Germany).
Approximately 2-10 mg of powder was added to the titration cell containing Hydranal® Coulomat AD reagent. The residual water content was then calculated.

MCT rats = test: PH development in MCT rats; assay type: in vivo

Row | SMILES | Particle size, Range ([1]; n = 100) | Particle size, Mean ([1]; n = 100, Mean ± SD) | Water content [2] | PH development (MCT rats)
1 | C[N+](C)(C)C[C@H](O)CC(=O)[O-] [Raw L-Car, L-Carnitine] | 298.38-1810.57 μm | 659.05 ± 235.82 μm | 2.68 ± 0.8 % (w/w) | attenuates PH development
2 | OC[C@@H](O)[C@@H](O)[C@H](O)[C@H](O)CO [Raw Man, D-mannitol] |  |  | 0.3 ± 0.13 % (w/w) | 
